Reference: ChEMBL document CHEMBL4765320, “Identification and optimization of piperine analogues as neuroprotective agents for the treatment of Parkinson's disease via the activation of Nrf2/keap1 pathway” (Eur J Med Chem, 2020)

test system: PC-12; assay: Neuroprotective activity against H2O2-induced cytotoxicity in rat PC-12 cells assessed as cell viability at 12.5 uM pretreated for 24 hrs followed by H2O2 challenge and measured after 24 hrs by MTT assay (reference value: 52.81 +/- 6%); type: functional; conditions: time 48 hrs, read-out: Activity

In order of falling viability at 12.5 µM:
1. COc1ccccc1/C=C/C(=O)N1CCCCC1  81.3%
2. CCN(CC)C(=O)/C=C/C=C/c1ccccc1OC  80.7%
3. CCN(CC)C(=O)/C=C/c1ccccc1OC  78.2%
4. O=C(/C=C/c1ccc2c(c1)OCO2)N1CCCCC1 [ILEPCIMIDE]  77%
5. O=C(/C=C/C=C/c1cccc(O)c1)N1CCCCC1  75.7%
6. CCNC(=O)/C=C/C=C/c1ccccc1OC  74.6%
7. O=C(/C=C/c1ccc(N2CCNCC2)cc1)N1CCCCC1  72.6%
8. CCN(CC)C(=O)/C=C/c1ccc2c(c1)OCO2  71.7%
9. CC(C)(C)c1cc(O)ccc1O [E319]  70.4%
10. CCNC(=O)/C=C/c1ccc2c(c1)OCO2  69.7%
11. CCN(CC)C(=O)/C=C/c1ccc(N2CCNCC2)cc1  69.1%
12. CCNC(=O)/C=C/C=C/c1ccc(O)cc1  69.1%
13. O=C(/C=C/C=C/c1ccccc1O)N1CCCCC1  68.8%
14. CCNC(=O)/C=C/c1ccccc1OC  68.5%
15. CCN(CC)C(=O)/C=C/C=C/c1cccn1C  67.8%
16. CCN(CC)C(=O)/C=C/C=C/c1ccc(O)cc1  67.3%
17. COc1cccc(/C=C/C=C/C(=O)N2CCCCC2)c1  58.1%
18. O=C(/C=C/C=C/c1cccs1)N1CCCCC1  57.9%
19. CCNC(=O)/C=C/c1cccs1  56.5%
20. O=C(/C=C/C=C/c1ccc2c(c1)OCO2)N1CCCCC1 [PIPERINE]  55.7%
21. CCN(CC)C(=O)/C=C/c1cccs1  54.3%
22. O=C(/C=C/c1cccs1)N1CCCCC1  50.4%
23. O=C(/C=C/C=C/c1ccc(O)cc1)N1CCCCC1  48.4%
24. CCNC(=O)/C=C/c1ccc(N2CCNCC2)cc1  42.7%
25. O=C(/C=C/C=C/c1ccc(N2CCCC2)cc1)N1CCCCC1  37.2%
26. O=C(/C=C/C=C/c1ccco1)N1CCCCC1  33.3%
27. CCN(CC)C(=O)/C=C/C=C/c1ccc2c(c1)OCO2  31.4%
28. O=C(/C=C/c1ccc(N2CCCC2)cc1)N1CCCCC1  30.6%
29. COc1ccc(/C=C/C=C/C(=O)N2CCCCC2)cc1  26.5%
30. CCN(CC)C(=O)/C=C/c1ccc(N2CCCC2)cc1  26.1%
31. CCNC(=O)/C=C/C=C/c1ccc2c(c1)OCO2  22.3%
32. O=C(/C=C/C=C/c1ccc(N2CCOCC2)cc1)N1CCCCC1  20.2%
33. O=C(/C=C/C=C/c1ccc(N2CCCCC2)cc1)N1CCCCC1  18.9%
34. O=C(/C=C/C=C/c1ccc(-c2ccccc2)cc1)N1CCCCC1  15.2%
